A melting point compilation (Tetko et al.; mined from patent text by program, amines drawn as free bases though some values may be those of a salt)

Compound C=CCON=Cc1nc(-c2ccc(Cl)c(Cl)c2Cl)cn1S(=O)(=O)N(C)C has a melting point of 87 to 88 °C. Compound CCOC(=O)CCCCC(=O)c1c(CBr)n(C(C)=O)c(=O)n1C(C)=O has a melting point of 114 to 115 °C. CC(C)C(=O)Nc1ccc(C(=O)O)cc1N gave a melting point of 159 to 160 °C. Compound Cc1cn2ccc3c(c2n1)NC(c1ccccc1)C(OC(=O)C(C)(C)C)C3=O (stereo not given) has a melting point of 145 to 147 °C. In the case of COC(=O)c1c(F)cc(OCCNC(=O)C2Cc3ccccc3N2S(=O)(=O)c2ccc(-c3cc(C(F)(F)F)ccc3Cl)cc2)cc1F (stereo not given), the melting point is reported as 78 °C. Compound N#Cc1c(Cl)c2cccnc2[nH]c1=O has a melting point of 310 °C. For CC(C)(C)Nc1c(Nc2cnc3ccccc3c2)c(=O)c1=O, the melting point was 257 to 260 °C. Work on CCOC(=O)C(C)(C)c1nc2ccc(Cl)nn2c1Cl yielded a melting point of 66 to 67 °C. Work on Cc1ccc(OC2CCN(C(=O)CNc3ccc4[nH]c(=O)sc4c3)CC2)cc1 yielded a melting point of 189 to 191 °C. C[C@](N)(CO)CCc1ccc2oc(-c3ccccc3)nc2c1 showed a melting point of 128 °C. Compound CCCNCC(O)c1ccc(Br)cc1 (stereo not given) has a melting point of 72.5 to 74.5 °C. Compound CC(=O)NNC(=O)Nc1ccccc1-c1ccc(C)cc1 has a melting point of 102 to 104 °C. Work on O=C(Nc1ccc(CN2CCOCC2)cc1)C1=Cc2cc(-c3ccccc3)ccc2CC1 yielded a melting point of 186 to 187 °C. In the case of CCOC(=O)NC(=S)CNc1ccc(C(=O)OC)c(S(=O)(=O)NC(=O)Nc2nc(OC)cc(OC)n2)c1, the melting point is reported as 144 to 145 °C. OC(=S)CC1c2ccccc2Oc2ccccc21 gave a melting point of 131 to 132 °C. For Fc1cc(-c2ccc3nnn(Cc4ccc5ncccc5c4)c3n2)ccc1OC1CCOCC1, the melting point was 165 to 167 °C. Compound Cc1ccc(Cl)cc1N1C(=O)CN(C)C1=S has a melting point of 132 to 134 °C. O=C1c2cc(F)ccc2-n2c1nc1ccccc1c2=O showed a melting point of 273 to 276 °C. In the case of COc1ccc(C(=CC#N)c2ccc(OC)c(OC)c2)cc1NC(C)=O, the melting point is reported as 139 to 141 °C. Compound O=C(c1cc(O)c2occc2c1)c1ccco1 has a melting point of 140 to 142 °C. CCCCN(C(C)=O)c1cccc(-c2ccnc3c(C#N)cnn23)c1 gave a melting point of 146 to 148 °C. Work on CCNC(=C[N+](=O)[O-])NCCSCc1[nH]cnc1C yielded a melting point of 171 to 172 °C. Work on O=C(O)COc1cc(F)c(F)cc1C(=O)NCc1ccc(Br)cc1F yielded a melting point of 156 to 158 °C. In the case of CCCCCCCCCCCCCCCCNc1ccc(C#N)cc1, the melting point is reported as 63 to 64 °C. In the case of O=C(NCCOCc1ccc(C(=O)c2ccccc2)cc1)Nc1ccccc1, the melting point is reported as 129 to 132 °C. In the case of O=CC(O)C(O)C(CO)OC1OC(CO)C(O)C(O)C1O (stereo not given), the melting point is reported as 171 to 176 °C. CCc1nn(CCO)c(CC)c1Oc1cc(-n2cccn2)cc(-n2cccn2)c1 showed a melting point of 108 to 110 °C. Compound CN1CCN(c2cc3c(cc2F)c(=O)n(O)c(=O)n3-c2ccc(F)c(Cl)c2)CC1 has a melting point of 197 to 199 °C. For CC(c1ccc(F)cc1)n1c(NC2CCN(CCc3ccccc3)CC2)nc2ccccc21 (stereo not given), the melting point was 162 °C. With COc1cc2c(c3c1C1CCC3CC1)OC(COS(=O)(=O)c1ccc(C)cc1)C2 (stereo not given) the melting point was 136 to 141 °C. CC(C)(C)OC(=O)N1CCN(CCSc2nc3cc(F)c(F)cc3[nH]2)CC1 showed a melting point of 192 to 193 °C. For CCCCC(=O)C(=C1NCCCS1)[N+](=O)[O-], the melting point was 61.5 to 64 °C. For CCCCN(c1nc(N(CC)CC)nc(N(CCCC)C2CC(C)(C)NC(C)(C)C2)n1)C1CC(C)(C)NC(C)(C)C1, the melting point was 74 to 76 °C. With N#CCc1ccc(-c2nc3ccccc3o2)cc1[N+](=O)[O-] the melting point was 203 °C. In the case of O=C1C(=Cc2ccc(O)c(CO)c2)Cc2ccccc21, the melting point is reported as 194 to 195 °C. In the case of NC(=O)Cc1c[nH]c2cc(OCc3ccccc3)ccc12, the melting point is reported as 189 to 192 °C. O=C(NCCc1ccccc1)C(F)(F)F gave a melting point of 50 to 52 °C. Work on Nc1nc2ccccc2c2c1nc1n2C(C2CCOCC2)COC1 (stereo not given) yielded a melting point of 240 to 243 °C. CN1CCN(Cc2ccccc2C(F)(F)F)C(C2=NCCN2)C1 (stereo not given) showed a melting point of 163 to 165 °C. Work on O=c1oc2ccc(-c3ccc(F)cc3F)cc2c(=O)n1-c1ccccc1C(F)(F)F yielded a melting point of 200 to 201 °C. Cc1cn(C(C)C(=O)N2CCOCC2)nc1-c1ccccc1 (stereo not given) gave a melting point of 84 to 96 °C. In the case of Cc1c(Cl)ccnc1C(=O)NCCNC(=O)OC(C)(C)C, the melting point is reported as 134 to 135 °C. Work on CNC(=O)N1CC(Oc2cc(C(F)(F)F)ccc2F)C1 yielded a melting point of 93.5 to 95 °C. With COC(F)(F)C(F)(F)C(N)=O the melting point was 78 to 80 °C. Compound O=C1CSC(=S)N1c1cccc(C(F)(F)F)c1 has a melting point of 177 to 178 °C. With CN1C(=O)Cn2c1nc(C(=O)O)c(OCc1ccccc1)c2=O the melting point was 194 °C. For C#CC(O)(c1ccccc1)c1ccncc1 (stereo not given), the melting point was 165 to 166 °C. In the case of COc1ccc(N2CCOCC2)c2sc(NC(=O)N3CCC(C)(O)CC3)nc12, the melting point is reported as 236 °C. For CC(C)N1CCN(c2ccc(N)cc2)C(=O)C1, the melting point was 156 to 159 °C. In the case of COc1cc(C(C)N(O)C(N)=O)ccc1OCCc1ccccc1 (stereo not given), the melting point is reported as 112 to 115 °C. O=C1c2ccccc2C(=O)N1C1CCC(c2cc(F)c(Br)cc2F)C1 (stereo not given) showed a melting point of 44 to 47 °C. With O=C1CC(Sc2nnc(S)s2)C(=O)O1 (stereo not given) the melting point was 194 to 196 °C. For CCCCCCCCC=CCCCCCCCCCCCC(=O)NCCOC(C)=O, the melting point was 51 °C. CCON=C(C(C)=NOCc1ccccc1C(=NOC)C(=O)NC)c1ccc(OC[Si](C)(C)c2ccc(F)cc2)cc1 gave a melting point of 88 to 90 °C. Compound CC(C)(C(=O)O)c1ccc(-c2ccc(Cl)cc2)s1 has a melting point of 146 to 148 °C. Compound CCCOc1ccc(S(=O)(=O)NCc2ccncc2)cc1-c1nc2cc(N)c([N+](=O)[O-])cc2c(=O)[nH]1 has a melting point of 157 to 160 °C. For CN(C(=O)C(C)(C)c1cc(C(F)(F)F)cc(C(F)(F)F)c1)c1cnc(NCCO)cc1-c1ccccc1Cl, the melting point was 117 to 118 °C. CCCOc1ccc(CCCOc2nn(C)cc2CC(=O)O)c(Oc2ncc(C(F)(F)F)cc2Cl)c1 showed a melting point of 95 to 96 °C. In the case of COc1ccc(C2=NN(C3CCCCCCC3)C(=O)[C@H]3CC=CC[C@@H]23)cc1OC (relative stereo), the melting point is reported as 75 to 77 °C. Compound CC(=O)C(=Cc1ccc(Cl)c(Cl)c1)C(C)=O has a melting point of 73 °C. With COc1cccc2c1-c1c(OC(C)C)cccc1C2=O the melting point was 118 to 120 °C. Work on O=C(Nc1ccc(F)cc1F)C1C(=O)N2c3ccccc3Sc3cccc1c32 (stereo not given) yielded a melting point of 208 to 209 °C. CCC(O)c1cc2c(cc1C)OCO2 (stereo not given) showed a melting point of 71 to 72 °C. Work on O=C1Cc2cc(Cl)ccc2Oc2ccccc21 yielded a melting point of 60 to 61 °C. For CCCC(=O)Cc1ccc(C(=O)Nc2ccc3cc(CN4CCCCCC4)cnc3c2C)cc1, the melting point was 136 to 137 °C. With O=C(NC(=O)C(Br)CBr)Nc1ccccc1 (stereo not given) the melting point was 160 to 161 °C. COCOc1ccc(CCCOc2nn(Cc3ccccc3)cc2CC(=O)O)c(Oc2ncc(C(F)(F)F)cc2Cl)c1 gave a melting point of 108 to 109 °C. In the case of Cc1c(C(=O)O)sc2ccc(CO)cc12, the melting point is reported as 260 to 262 °C. Compound CC1=C(C(=O)NN)C(c2ccccc2Cl)c2c[nH]nc2N1 (stereo not given) has a melting point of 220 °C. For FC(F)(F)Sc1cn(-c2c(Cl)cc(C(F)(F)F)cc2Cl)c(Cl)n1, the melting point was 112 °C. O=C(Nc1ccccc1OCC1CO1)c1cccc2[nH]ccc12 (stereo not given) gave a melting point of 122 °C. CCCCCNC(=O)N(C)c1ncc(-c2ccc(C[C@H](OCC)C(=O)O)cc2)s1 showed a melting point of 114 °C. For COc1cc(C(O)c2ccc(C)cc2)cc(C2OCCCO2)c1OC (stereo not given), the melting point was 83 to 84 °C. In the case of NC(=O)CCCCC(=O)c1ccccc1, the melting point is reported as 113 to 114 °C. CCOC(=O)c1ccc(N(NC(C)=O)C(=O)OC(C)(C)C)cc1 gave a melting point of 105 to 108 °C. CCCCc1cc(C)cc(=O)[nH]1 showed a melting point of 95 °C. Work on CS(=O)(=O)CN=C(N)NCCSCc1csc(NC(N)=NCC(F)(F)C(F)(F)F)n1 yielded a melting point of 149 to 151 °C. In the case of O=[N+]([O-])c1cc(CO)c(Cl)cc1F, the melting point is reported as 39 to 41 °C. C=CC(=O)OCCCOc1ccc(-c2ccc(C#N)cc2)cc1 gave a melting point of 70 °C. Cc1sc2cc(C3=NCC4(CCNCC4)S3)[nH]c2c1N(C)S(=O)(=O)c1cccs1 showed a melting point of 196 °C. Work on CN(N)c1cc(Cl)ncn1 yielded a melting point of 182 to 185 °C. For COc1ccc(N2CC(=O)N(C)C(=O)N2)cc1, the melting point was 179 to 181 °C. In the case of COC(=O)C(Cl)Cc1ccc(-n2c(=O)cc(C(F)(F)F)n(C)c2=O)c(F)c1 (stereo not given), the melting point is reported as 101 to 103 °C. COc1cccc(C(=N)NN2CCc3ccccc3C2=O)c1 showed a melting point of 176 to 177 °C. For C=CNC(=S)n1nc(Oc2ncc(C(F)(F)F)cc2Cl)cc1C, the melting point was 90 to 92 °C. Work on NC(=O)C=Cc1cc2c(Oc3ccc(Br)cc3)cncc2s1 yielded a melting point of 195 to 196 °C. With CSCCCCCC=C(NC(=O)C1CC1(C)C)C(=O)O (stereo not given) the melting point was 82 to 84 °C. Fc1ccc2c(c1)Sc1ccc(C(F)(F)F)cc1C2=C1CCNCC1 showed a melting point of 125 to 130 °C. N#CC1=C(c2ccsc2)Nc2n[nH]cc2C1c1cccc2nonc12 (stereo not given) showed a melting point of 242 °C. With OC(Cn1cncn1)(Cn1cncc1C(F)(F)F)c1ccc(Cl)cc1Cl (stereo not given) the melting point was 190 to 192 °C. O=CC1Cc2cc(C(=O)c3cccs3)c(Cl)c(Cl)c2O1 (stereo not given) gave a melting point of 162 to 164 °C. In the case of COc1ccc(N2C(=O)/C(=C/C(C)=NO)C2c2ccccc2)cc1 (stereo not given), the melting point is reported as 204 to 206 °C. With O=C1Cc2ccccc2C(=O)N1c1ccc(Cl)cc1 the melting point was 178 to 180 °C. For CCc1ccc(C)c(NC(=O)C(C)(C)C)n1, the melting point was 72 to 75 °C. For CSC[C@H](C)NC(=O)c1c(Cl)cccc1C(=O)Nc1ccc(Cn2c(C)nnc2C(F)(F)F)cc1C, the melting point was 168 to 170 °C. Work on CCOC(=O)c1cccc(-c2ccnc(OCCc3ccc(OC)c(OC)c3)n2)c1 yielded a melting point of 94 to 95 °C. For CC(C)c1c(CO)c(-c2ccc(F)cc2)nc2ccccc12, the melting point was 208 to 210 °C. Work on Nc1ccc(-c2ccnc(-c3ccc(C(F)(F)F)cc3)n2)cc1 yielded a melting point of 166 to 167 °C. CCN(CC)N(C(C)=O)c1nc2c(C)c3nc(N(C(C)=O)N(CC)CC)sc3cc2s1 showed a melting point of 191 to 192 °C. CCOC(=O)c1ccc(/C=C(\C)c2cc3c(cc2OC)C(C)(C)CCC3(C)C)cc1 gave a melting point of 97 to 98 °C. Cn1cc(-c2ccccc2)c(=S)c(-c2ccccc2)n1 showed a melting point of 122 to 123 °C. Work on CCn1c([N+](=O)[O-])cnc1-c1nnc2ccc(Cl)nn12 yielded a melting point of 164 to 166 °C. In the case of CCOC(=O)c1nc2n(c(=O)c1O)CCOC2, the melting point is reported as 172 to 174 °C. For Cc1oc(/C=C/c2ccccc2)nc1COc1ccc(CCCn2ccnc2)cc1, the melting point was 94 to 95 °C. O=C(CCC1CC1)N1C(=O)OC[C@@H]1Cc1ccccc1 gave a melting point of 42 to 43 °C.
